Experimental data from PubChem BioAssay (NCI).
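Protocol summary: plate cells (96-well), add compound at 5 concentrations, incubate 48 h, interpolate endpoints linearly. Here, GI50 denotes the concentration required for 50% inhibition of growth. TGI denotes the concentration required for complete inhibition of growth.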

test system: MDA-MB-435; assay: NCI-60 cell line screen, 48 h

Point of comparison: COC1/C=C/OC2(C)Oc3c(C)c(O)c4c(O)c(c(/C=N/Nc5ccc([N+](=O)[O-])cc5[N+](=O)[O-])c(O)c4c3C2=O)NC(=O)C(C)=C/C=C/C(C)C(O)C(C)C(O)C(C)C(OC(C)=O)C1C (stereo unspecified), GI50 1.28 µM. Against it:
- CCOC1Oc2ccccc2C(=O)/C1=C/Nc1ccc(C(C)=O)cc1 (stereo unspecified) — 19-fold higher, 24.3 µM
- COc1cccc(-c2cc(-c3cccc(NS(C)(=O)=O)c3)nc(N)c2C#N)c1O — 47-fold lower, 0.0275 µM
- CCN1CCN(Cc2ccc(NC(=O)c3cccc(C#Cc4cccc5[nH]nc(N)c45)c3)cc2C(F)(F)F)CC1 — 3.8-fold lower, 0.339 µM
- NC(N)=NS(=O)(=O)c1ccc(Nc2c3ccccc3nc3c(C(=O)NCCO)cccc23)cc1 — 18-fold higher, 23.3 µM
- O=C1NC(=NCCc2cccc(F)c2)S/C1=C\c1ccc2ncccc2c1 — 4.1-fold lower, 0.312 µM
- COc1cc(/C=N\NC(=O)CN2CCN(c3cc4c(cc3F)c(=O)c(C(=O)N/N=C/c3cc(OC)c(OC)c(OC)c3)cn4C3CC3)CC2)cc(OC)c1OC — 5.4-fold lower, 0.237 µM
- OCCN(CCO)c1ncnc2c1ncn2Cc1ccc(CCl)cc1 — 11-fold higher, 14.5 µM
- Cc1ccc2c(C)c3c(ccc4ccccc43)c[n+]2c1 — 7.5-fold higher, 9.55 µM
- Cc1ccc(CN2CCC(C(=O)Nc3ccc(-c4cc5ccccc5[nH]4)cc3)CC2)o1 — higher, > 100 µM
- C=CC(=O)Nc1cc(Nc2ncc(C(=O)OC(C)C)c(-c3cn(C)c4ccccc34)n2)c(OC)cc1N(C)CCN(C)C — 2.3-fold higher, 3 µM
- O=C(Nc1ccc(F)cc1)Nc1ccc(Cl)c([N+](=O)[O-])c1 — 2.4-fold higher, 3.07 µM
- CC1CCc2nc[nH]c(=O)c21 (stereo unspecified) — higher, > 100 µM
- Fc1[nH]nc2ccc([C@@H]3Nc4ccc5[nH]ncc5c4[C@H]4C5CCC(C5)[C@@H]34)cc12 (stereo partly specified) — 4.5-fold lower, 0.286 µM
- Nc1ccccc1C#C/C=C\C#Cc1ccccc1OC(F)(F)F — within 1.5-fold, 1.39 µM

Point of comparison: COc1cc(/C=N\NC(=O)CN2CCN(c3cc4c(cc3F)c(=O)c(C(=O)N/N=C/c3cc(OC)c(OC)c(OC)c3)cn4C3CC3)CC2)cc(OC)c1OC, TGI 0.559 µM. Against it:
- CCOC1Oc2ccccc2C(=O)/C1=C/Nc1ccc(C(C)=O)cc1 (stereo unspecified) — 110-fold higher, 61.9 µM
- O=C(CCNC12CC3CC(CC(C3)C1)C2)c1ccccc1 — 120-fold higher, 65.9 µM
- COc1cccc(-c2cc(-c3cccc(NS(C)(=O)=O)c3)nc(N)c2C#N)c1O — 3.7-fold lower, 0.151 µM
- CCN1CCN(Cc2ccc(NC(=O)c3cccc(C#Cc4cccc5[nH]nc(N)c45)c3)cc2C(F)(F)F)CC1 — 2.8-fold higher, 1.57 µM
- Cc1ccsc1C(=S)Nc1ccc(Cl)c(/C=N/OC(C)(C)C)c1 — higher, > 100 µM
- CC(C)=CCC\C(C)=C/C=C/C(C)=C\C=C\C(C)=C/C=C/C=C(C)\C=C\C=C(C)/C=C/C=C(/C)CCC=C(C)C — higher, > 100 µM
- COc1cccc(C2c3cc4c(cc3OC(C)(N3CCCC3)C2C)OCO4)c1O (stereo unspecified) — 6.8-fold higher, 3.82 µM
- COC(=O)CC[N+]1=CCC(c2ccccc2)(c2ccccc2)O1 — higher, > 100 µM
- CCN(CC)N=Nc1c(C(N)=O)n[nH]c1C — higher, > 100 µM
- O=C1NC(=NCCc2cccc(F)c2)S/C1=C\c1ccc2ncccc2c1 — 2.1-fold higher, 1.19 µM
- OCCN(CCO)c1ncnc2c1ncn2Cc1ccc(CCl)cc1 — 52-fold higher, 29.3 µM
- Cc1ccc2c(C)c3c(ccc4ccccc43)c[n+]2c1 — 44-fold higher, 24.4 µM
- Cc1ccc(CN2CCC(C(=O)Nc3ccc(-c4cc5ccccc5[nH]4)cc3)CC2)o1 — higher, > 100 µM
- C=CC(=O)Nc1cc(Nc2ncc(C(=O)OC(C)C)c(-c3cn(C)c4ccccc34)n2)c(OC)cc1N(C)CCN(C)C — 14-fold higher, 7.6 µM
- O=C(Nc1ccc(F)cc1)Nc1ccc(Cl)c([N+](=O)[O-])c1 — 21-fold higher, 11.6 µM
- CCOC(=O)Cn1c(C(F)(F)F)nc2nc(Cl)c(Cl)nc21 — higher, > 100 µM
- CC1CCc2nc[nH]c(=O)c21 (stereo unspecified) — higher, > 100 µM
- Fc1[nH]nc2ccc([C@@H]3Nc4ccc5[nH]ncc5c4[C@H]4C5CCC(C5)[C@@H]34)cc12 (stereo partly specified) — 1.9-fold higher, 1.08 µM
- Nc1ccccc1C#C/C=C\C#Cc1ccccc1OC(F)(F)F — 11-fold higher, 6.04 µM
- COC1/C=C/OC2(C)Oc3c(C)c(O)c4c(O)c(c(/C=N/Nc5ccc([N+](=O)[O-])cc5[N+](=O)[O-])c(O)c4c3C2=O)NC(=O)C(C)=C/C=C/C(C)C(O)C(C)C(O)C(C)C(OC(C)=O)C1C (stereo unspecified) — 6.7-fold higher, 3.72 µM
- Cc1cnc(NCCCN(C)C)c2c1[nH]c1ccc3cc(O)ccc3c12 — 4.1-fold higher, 2.3 µM
- Fc1ccc(NC(=S)SCc2ccc3c(c2)OCO3)cc1F — 93-fold higher, 51.8 µM

test system: T-47D breast; assay: NCI-60 cell line screen, 48 h

Point of comparison: FC(F)(F)c1cccc(Nc2nc(-c3ccccc3)nc3ncccc23)c1, GI50 3.53 µM. Against it:
- CN(C)c1ccc(/C=C\C2=[N+](C)c3ccccc3C2(C)C)cc1 — 5.6-fold lower, 0.634 µM
- CC(=O)OC1OC([C@@H]2c3cccc(O)c3C(=O)c3c(O)cc(C)cc32)C(O)C(O)C1O (stereo partly specified) — 12-fold lower, 0.306 µM
- Nc1nc(-n2c(-c3ccccc3)nc3c(Br)cc(Br)cc3c2=O)nnc1-c1cccc(Cl)c1Cl — higher, > 100 µM
- COC(=O)/C=C1\S/C(=N\NC(=O)c2cc3ccc2/C=C\c2ccc(cc2)/C=C\3)N(c2ccccc2)C1=O — 2.3-fold lower, 1.54 µM
- COC([CH2][Hg][n]1cnc2c1c(=O)n(C)c(=O)n2C)CN1C(=O)c2ccccc2S1(=O)=O (stereo unspecified) — higher, > 100 µM
- CN1CCCCC1CCN1c2ccccc2Sc2ccc(Cl)cc21 (stereo unspecified) — within 1.5-fold, 4.25 µM
- C=C(C)C(OC)C(O)CC1(C)CC(O)CC(C)(C2CCC3OC(C4(C)CCC(Br)C(C)(C)O4)CCC3(C)O2)O1 (stereo unspecified) — 1.6-fold lower, 2.27 µM
- Cc1cc(-c2nc(C(=O)Nc3cc4oc(N5CCOCC5)nc4nc3N3CC[C@@H](O)C3)co2)ccn1 — 6.3-fold higher, 22.1 µM
- OC1CSSC1Cn1cnc2c(Nc3ccc(OCc4cccc(F)c4)c(Cl)c3)ncnc21 (stereo unspecified) — 2.7-fold lower, 1.3 µM
- Nc1c(C(=O)c2cccc(CCS(N)(=O)=O)c2)cnn1-c1ccc(F)cc1 — higher, > 20.6 µM

Point of comparison: CN1CCCCC1CCN1c2ccccc2Sc2ccc(Cl)cc21 (stereo unspecified), TGI 18.8 µM. Against it:
- CN(C)c1ccc(/C=C\C2=[N+](C)c3ccccc3C2(C)C)cc1 — higher, > 33.2 µM
- COc1cc2c(c3oc4c(O)cccc4c(=O)c13)CC(C(C)(O)CO)O2 (stereo unspecified) — higher, > 100 µM
- CC(=O)OC1OC([C@@H]2c3cccc(O)c3C(=O)c3c(O)cc(C)cc32)C(O)C(O)C1O (stereo partly specified) — 22-fold lower, 0.87 µM
- Nc1nc(-n2c(-c3ccccc3)nc3c(Br)cc(Br)cc3c2=O)nnc1-c1cccc(Cl)c1Cl — higher, > 100 µM
- C[N+](C)(C)CC(=O)N/N=C(/CC(=O)CC(C1=C(O)c2ccccc2OC1)c1ccccc1)C(=O)Nc1cccc(Cl)c1 (stereo unspecified) — higher, > 100 µM
- O=C1/C(=C/c2ccc(O)c(O)c2)CCC/C1=C\c1ccc(O)c(O)c1 — higher, > 48.1 µM
- COC(=O)/C=C1\S/C(=N\NC(=O)c2cc3ccc2/C=C\c2ccc(cc2)/C=C\3)N(c2ccccc2)C1=O — 5.2-fold lower, 3.65 µM
- COC([CH2][Hg][n]1cnc2c1c(=O)n(C)c(=O)n2C)CN1C(=O)c2ccccc2S1(=O)=O (stereo unspecified) — higher, > 100 µM
- COc1ccc(CC2c3cc4c(cc3CCN2C)OCO4)c(C=O)c1OC (stereo unspecified) — higher, > 100 µM
- C=C(C)C(OC)C(O)CC1(C)CC(O)CC(C)(C2CCC3OC(C4(C)CCC(Br)C(C)(C)O4)CCC3(C)O2)O1 (stereo unspecified) — within 1.5-fold, 22.2 µM
- Cc1cc(-c2nc(C(=O)Nc3cc4oc(N5CCOCC5)nc4nc3N3CC[C@@H](O)C3)co2)ccn1 — higher, > 100 µM
- Cc1ccc(Cl)c2c(N=Nc3ccccc3[N+](=O)[O-])c(O)[nH]c12 — higher, > 100 µM
- FC(F)(F)c1cccc(Nc2nc(-c3ccccc3)nc3ncccc23)c1 — within 1.5-fold, 15.2 µM
- OC1CSSC1Cn1cnc2c(Nc3ccc(OCc4cccc(F)c4)c(Cl)c3)ncnc21 (stereo unspecified) — 2.2-fold lower, 8.4 µM
- C=CCOc1ccc2c(C)cc(=O)oc2c1C — higher, > 100 µM
- Nc1c(C(=O)c2cccc(CCS(N)(=O)=O)c2)cnn1-c1ccc(F)cc1 — higher, > 25 µM
